From patent US6528042B1, “Compositions of flavonoids for use as cytoprotectants and methods of making and using them” (Galileo Laboratories, Inc., priority 1999, dated 2003)

What was measured:
[1] = tested on: Oxidatively competent cells; test: SYTOX cell death assay in oxidatively competent cells treated with antimycin A; format: cell-based
Procedure: Oxidatively competent cells are prepared as described in Example 1. and Example 2.A and are seeded onto 96-well plates at 1×10^3/well or 2.5×10^3/well as passage 15. The cells are grown in DMEM with 10% FBS and 1.5 g/L sodium bicarbonate for 24 or 48 hours to reach 85% confluence. The cells are washed once with HBSS and then 100 μl of HBSS containing different concentration of AA (Sigma, Cat #A 8674) is added to the cells. AA is dissolved in DMSO to make a stock solution of 50 mM, then diluted with HBSS to 25, 12.5, 6.25, 3.125, and 1.56 μM for dose-response curves. The cells, with or without AA, are incubated at 37° C. in a 5% CO2 humidified incubator for 1 to 5 hours. The concentration of AA is chosen to induce 75% or 100% cell death as a screening dose to test the effect of agents to protect against AA- induced cell toxicity. The concentration of agents used for screening will be dependent upon the agents. Certain control groups contain 100 μl of HBSS only.
(§1) SYTOX Green nucleic acid stain is a high-affinity nucleic acid stain that easily penetrates cells with a compromised plasma membrane but will not cross the membrane of live cells. The nucleic acids of dead cells fluoresce bright green at 524 nm when excited with the 488 nm spectral source or with any other 450-500 nm source. […] In the cell viability assay chemical ischemia is created in cells and then cells are incubated with the SYTOX dye. The compound antimycin is used to simulate ischemia at the same time as stimulating the cells with forskolin. […] The assay is performed on cells grown in 96-well format allowing high throughput screening of compounds.
(§2) Compound(s) are mixed with the 1 μM SYTOX working solution and added to the washed cell culture wells. Fluorescence is measured at designated time points (488 nm excitation and 530 nm emission). All of the sample readings subtract the background readings, which is cell-free wells only containing HBSS buffer with SYTOX green dye. The data is compared to non-treated cells (control) and is expressed as mean±S.D. from 4 culture wells. SYTOX Green fluorescence units obtained from each group are corrected for basal fluorescence (cell-free wells with only HBSS and fluorescence reagent). Data are represented as mean±SD. A paired t-test is performed comparing treated groups (Toxin+Agent) with non-treated groups (Toxin only) after subtracting the control groups (HBSS only) for each data set. Comparisons among groups are statistically evaluated by two-tailed t-test (Graphpad Prism Software, version 2.0). Differences are considered significant at P<0.05.
Oxidatively competent cells were treated simultaneously with hesperetin, chrysin and 100 nM antimycin A2.C. The cells were treated with various low concentrations of hesperetin and various concentrations of chrysin (Sigma Chemical Co., cat. #C3018). Hesperetin, chrysin and antimycin A were mixed together before treating the cells. Cell viability was measured at time points up to 5 hours using SYTOX, as described in Example 2.F.
In experiments carried out in support of the invention, various concentrations of diosmin and alpha-tocopherol were tested for synergistic ability to ameliorate disruption of energy metabolism secondary to stress. Oxidatively competent cells were treated simultaneously with diosmin, alpha-tocopherol and antimycin A2.C. The cells were treated with various low concentrations of diosmin (Sigma Chemical Co., cat. #D3525) and various low concentrations of (+/−) alpha-tocopherol. Diosmin, alpha-tocopherol and antimycin were mixed together before treating cells. Cell viability was measured 4 hours after treatment using SYTOX. […] Likewise, the combination of disomin (11-100 μM) with 1.1 μg/ml (+/−) alpha tocopherol was synergistic. […] Diosmin alone provided no protection at a concentration of 100 μM. […] A combination of 100 μM diosmin and 11 μg/ml (+/−) alpha tocopherol was also synergistic. […]

GCL1 cells = test: SYTOX cell death assay in GCL1 cells treated with antimycin A (chemical ischemia); format: cell-based, rat hepatoma cells (fao) / human fibroblasts (W138) hybrid
Text: At greater than 80% confluence, more than 80% of the cells participate in forming one or more phaselucent, spherical structures that are located between cells, termed bile canicular-like spaces. In contrast to the majority of cell lines maintained in culture which are fermentative, GCL1 cells, when at their maximal density and polarity, are highly oxidative (i.e., they can be readily killed by inhibitors of oxidative phosphorylation or electron transport uncouplers). […] These cells are amenable to use in high throughput screening (HTS) technology.
The cells, with or without AA, are incubated at 37° C. in a 5% CO2 humidified incubator for 1 to 5 hours. […] The concentration of agents used for screening will be dependent upon the agents. Certain control groups contain 100 μl of HBSS only.
as §1
Aliquot at 100 μl. This 10 mM stock is then diluted to 1 mM with DMSO and aliquoted at 25 μL. Both the 10 mM and the 1 mM are stored at −20° C. until use. […] Aliquot at 100 μl and store at −20° C. until use. iv.) HBSS-SYTOX-FORSKOLIN-ANTIMYCIN (H-S-F-A) solution: H-S-F-A solution is made up fresh prior to each assay in sterile 175 ml or 225 ml Falcon bottles. […]
Cells are grown in 96-well black plates (with or without clear bottoms) at a density of 1000 cells per well for 24 hours. The necessary number of 96-well plates containing the specific cell type are obtained and placed in the laminar flow safety cabinet. A sterile microtiter basin is filled with the appropriate volume of pre-warmed 1×HBSS. Using aseptic technique and an 8-channel aspirator, the media is carefully removed from the cells and replaced with 200 μl of 1×HBSS. This is done as quickly as possible to prevent the cells drying out. The plates are then placed in the humidified 37° C. incubators of the Biomek 2000 Side Loader. Four plates are washed at a time so as to minimize the time that the cells are sitting in 1×HBSS prior to addition of the H-S-A-compound test solution.
as §2
Hesperetin, diosmin, luteolin and quercetin were tested individually for their ability to counteract disruptions of normal energy metabolism. Flavonoids were commercially obtained, generally from Sigma Chemical Co., St. Louis, Mo., and/or Aldrich Chemical Co., Milwaukee, Wis.

[2] = cited from earlier work
[3] = 25 μM hesperetin alone, 4 hours, control cell death 82.9%

For COc1ccc([C@@H]2CC(=O)c3c(O)cc(O)cc3O2)cc1O [Hesperetin, (S)-2,3-dihydro-5,7-dihydroxy-2-(3-hydroxy-4-methoxyphenyl)-4H-1-benzopyran-4-one], which Cell Death ([1]; 50 μM hesperetin alone, control 72.9%) is on record?
The Cell Death was 73.4%.

And the “protection when tested separately” value ([1]; 2 and 50 μM hesperetin, four hours)?
The value was “generally ineffective”.

And the Cell Death (GCL1 cells; [3])?
The Cell Death was 81.1%.

And the “reduction in cell death” value (GCL1 cells; [3])?
The value was 1.8%.

And the protection (GCL1 cells; 50 μM Hesperetin alone)?
The protection was 14.4%.

And the Cell Death (GCL1 cells; 50 μM Hesperetin alone, 4 hours, control 82.1%)?
Its Cell Death is 81.3%.

What about the Cell Death (GCL1 cells; 50 μM hesperetin alone, 4 hours, control 97.4%) of the same compound?
The Cell Death was 92.6%.

What about the “protection above control level” value (GCL1 cells; 75 μM Hesperetin by itself) of the same compound?
Its value is 7.5%.

And the “Cell Death” value (GCL1 cells; Hesperetin 1.9 μM, antimycin A 100 nM, time 0:00 hr:min)?
Its value is 0.0% ± 0.0.

And the “Cell Death” value (GCL1 cells; Hesperetin 1.9 μM, antimycin A 100 nM, time 1:45 hr:min)?
The value was 0.5% ± 0.6.

And the “Cell Death” value (GCL1 cells; Hesperetin 1.9 μM, antimycin A 100 nM, time 2:45 hr:min)?
The value was 30.4% ± 3.3.

And the “Cell Death” value (GCL1 cells; Hesperetin 1.9 μM, antimycin A 100 nM, time 3:45 hr:min)?
Its value is 66.0% ± 3.1.

What about the “Cell Death” value (GCL1 cells; Hesperetin 1.9 μM, antimycin A 100 nM, time 4:45 hr:min) of the same compound?
The value was 81.5% ± 1.4.

What about the “Cell Death” value (GCL1 cells; Hesperetin 6 μM, antimycin A 100 nM, time 0:00 hr:min) of the same compound?
The value was 0.0% ± 0.0.

And the “Cell Death” value (GCL1 cells; Hesperetin 6 μM, antimycin A 100 nM, time 1:45 hr:min)?
The value was 1.8% ± 0.8.

What about the “Cell Death” value (GCL1 cells; Hesperetin 6 μM, antimycin A 100 nM, time 2:45 hr:min) of the same compound?
Its value is 28.4% ± 1.5.

And the “Cell Death” value (GCL1 cells; Hesperetin 6 μM, antimycin A 100 nM, time 3:45 hr:min)?
The value was 65.0% ± 1.5.

And the “Cell Death” value (GCL1 cells; Hesperetin 6 μM, antimycin A 100 nM, time 4:45 hr:min)?
Its value is 81.8% ± 0.7.

And the “Cell Death” value (GCL1 cells; Hesperetin 17 μM, antimycin A 100 nM, time 0:00 hr:min)?
Its value is 0.0% ± 0.0.

And the “Cell Death” value (GCL1 cells; Hesperetin 17 μM, antimycin A 100 nM, time 2:45 hr:min)?
The value was 27.2% ± 2.0.

What about the “Cell Death” value (GCL1 cells; Hesperetin 17 μM, antimycin A 100 nM, time 3:45 hr:min) of the same compound?
The value was 64.1% ± 0.6.

What about the “Cell Death” value (GCL1 cells; Hesperetin 17 μM, antimycin A 100 nM, time 4:45 hr:min) of the same compound?
The value was 80.3% ± 1.0.

What about the “Cell Death” value (GCL1 cells; Hesperetin 50 μM, antimycin A 100 nM, time 0:00 hr:min) of the same compound?
Its value is 0.0% ± 0.0.

And the “Cell Death” value (GCL1 cells; Hesperetin 50 μM, antimycin A 100 nM, time 1:45 hr:min)?
The value was 2.3% ± 0.3.

What about the “Cell Death” value (GCL1 cells; Hesperetin 50 μM, antimycin A 100 nM, time 2:45 hr:min) of the same compound?
The value was 14.4% ± 2.2.

What about the “Cell Death” value (GCL1 cells; Hesperetin 50 μM, antimycin A 100 nM, time 3:45 hr:min) of the same compound?
Its value is 53.1% ± 5.7.

And the “Cell Death” value (GCL1 cells; Hesperetin 50 μM, antimycin A 100 nM, time 4:45 hr:min)?
The value was 74.0% ± 6.2.

What about the “protective effect” value (GCL1 cells; concentrations of 50 μM and below) of the same compound?
Its value is “little, if any, protective effect”.

What about the “abnormalities observed for a week” value ([2]; administered orally to mice at 100 mg/kg (U.S. Pat. No. 5,650,433)) of the same compound?
Its value is “no abnormalities were observed”.

And the “effects on liver function” value ([2]; tests using mice)?
The value was “no adverse effects on liver function”.

What about the toxicity or mitogenicity ([2]; tests using mice) of the same compound?
Its toxicity or mitogenicity is “little toxicity or mitogenicity”.
